Source: ChEMBL document CHEMBL2074178, “Passive permeability and P-glycoprotein-mediated efflux differentiate central nervous system (CNS) and non-CNS marketed drugs” (J Pharmacol Exp Ther, 2002)

Key:
[1] = target: T1, ATP-dependent translocase ABCB1 (Homo sapiens, UniProt P08183); test: TP_TRANSPORTER: transepithelial transport (basal to apical) in MDR1-expressing MDCKII cells; type: functional, cell-based; conditions: dog, mdck-ii
[2] = target: T1, ATP-dependent translocase ABCB1; test: TP_TRANSPORTER: increase in Calcein-AM intracellular accumulation (Calcein-AM: ? uM, Sumatriptan: 100 uM) in MDR1-expressing MDCKII cells; type: functional, cell-based; conditions: dog, mdck-ii
[3] = target: T2, MDR1 (P-glycoprotein, ABCB1) (Homo sapiens, UniProt P08183); test: TP_TRANSPORTER: increase in Calcein-AM intracellular accumulation (Calcein-AM: ? uM, Amitriptyline: 100 uM) in MDR1-expressing MDCKII cells; type: functional, cell-based, MDCK-II; conditions: dog, probe Calcein-AM
[4] = target: T1, ATP-dependent translocase ABCB1; test: TP_TRANSPORTER: increase in Calcein-AM intracellular accumulation (Calcein-AM: ? uM, Biperiden: 100 uM) in MDR1-expressing MDCKII cells; type: functional, cell-based; conditions: dog, mdck-ii
[5] = target: T2, MDR1 (P-glycoprotein, ABCB1); test: TP_TRANSPORTER: increase in Calcein-AM intracellular accumulation (Calcein-AM: ? uM, Buspirone: 100 uM) in MDR1-expressing MDCKII cells; type: functional, cell-based, MDCK-II; conditions: dog, probe Calcein-AM
[6] = target: T1, ATP-dependent translocase ABCB1; test: TP_TRANSPORTER: increase in Calcein-AM intracellular accumulation (Calcein-AM: ? uM, Carbamazepine: 100 uM) in MDR1-expressing MDCKII cells; type: functional, cell-based; conditions: dog, mdck-ii
[7] = target: T2, MDR1 (P-glycoprotein, ABCB1); test: TP_TRANSPORTER: increase in Calcein-AM intracellular accumulation (Calcein-AM: ? uM, Chlorprothixene: 100 uM) in MDR1-expressing MDCKII cells; type: functional, cell-based, MDCK-II; conditions: dog, probe Calcein-AM
[8] = target: T2, MDR1 (P-glycoprotein, ABCB1); test: TP_TRANSPORTER: increase in Calcein-AM intracellular accumulation (Calcein-AM: ? uM, Clomipramine: 100 uM) in MDR1-expressing MDCKII cells; type: functional, cell-based, MDCK-II; conditions: dog, probe Calcein-AM
[9] = target: T2, MDR1 (P-glycoprotein, ABCB1); test: TP_TRANSPORTER: increase in Calcein-AM intracellular accumulation (Calcein-AM: ? uM, Desipramine: 100 uM) in MDR1-expressing MDCKII cells; type: functional, cell-based, MDCK-II; conditions: dog, probe Calcein-AM
[10] = target: T2, MDR1 (P-glycoprotein, ABCB1); test: TP_TRANSPORTER: increase in Calcein-AM intracellular accumulation (Calcein-AM: ? uM, Doxepin: 100 uM) in MDR1-expressing MDCKII cells; type: functional, cell-based, MDCK-II; conditions: dog, probe Calcein-AM
[11] = target: T1, ATP-dependent translocase ABCB1; test: TP_TRANSPORTER: increase in Calcein-AM intracellular accumulation (Calcein-AM: ? uM, Flumazenil: 100 uM) in MDR1-expressing MDCKII cells; type: functional, cell-based; conditions: dog, mdck-ii
[12] = target: T2, MDR1 (P-glycoprotein, ABCB1); test: TP_TRANSPORTER: increase in Calcein-AM intracellular accumulation (Calcein-AM: ? uM, […]: 100 uM) in MDR1-expressing MDCKII cells; type: functional, cell-based, MDCK-II; conditions: dog, probe Calcein-AM
[13] = target: T2, MDR1 (P-glycoprotein, ABCB1); test: TP_TRANSPORTER: increase in Calcein-AM intracellular accumulation (Calcein-AM: ? uM, Fluvoxamine: 100 uM) in MDR1-expressing MDCKII cells; type: functional, cell-based, MDCK-II; conditions: dog, probe Calcein-AM
[14] = target: T2, MDR1 (P-glycoprotein, ABCB1); test: TP_TRANSPORTER: increase in Calcein-AM intracellular accumulation (Calcein-AM: ? uM, Haloperidol: 100 uM) in MDR1-expressing MDCKII cells; type: functional, cell-based, MDCK-II; conditions: dog, probe Calcein-AM
[15] = target: T1, ATP-dependent translocase ABCB1; test: TP_TRANSPORTER: increase in Calcein-AM intracellular accumulation (Calcein-AM: ? uM, Imipramine: 100 uM) in MDR1-expressing MDCKII cells; type: functional, cell-based; conditions: dog, mdck-ii
[16] = target: T1, ATP-dependent translocase ABCB1; test: TP_TRANSPORTER: increase in Calcein-AM intracellular accumulation (Calcein-AM: ? uM, Ketamine: 100 uM) in MDR1-expressing MDCKII cells; type: functional, cell-based; conditions: dog, mdck-ii
[17] = target: T2, MDR1 (P-glycoprotein, ABCB1); test: TP_TRANSPORTER: increase in Calcein-AM intracellular accumulation (Calcein-AM: ? uM, Maprotiline: 100 uM) in MDR1-expressing MDCKII cells; conditions: dog, probe Calcein-AM
[18] = target: T1, ATP-dependent translocase ABCB1; test: TP_TRANSPORTER: increase in Calcein-AM intracellular accumulation (Calcein-AM: ? uM, Meprobamate: 100 uM) in MDR1-expressing MDCKII cells; type: functional, cell-based; conditions: dog, mdck-ii
[19] = target: T2, MDR1 (P-glycoprotein, ABCB1); test: TP_TRANSPORTER: increase in Calcein-AM intracellular accumulation (Calcein-AM: ? uM, Metergoline: 100 uM) in MDR1-expressing MDCKII cells; type: functional, cell-based, MDCK-II; conditions: dog, probe Calcein-AM
[20] = target: T1, ATP-dependent translocase ABCB1; test: TP_TRANSPORTER: increase in Calcein-AM intracellular accumulation (Calcein-AM: ? uM, Naltrexone: 100 uM) in MDR1-expressing MDCKII cells; type: functional, cell-based; conditions: dog, mdck-ii
[21] = target: T1, ATP-dependent translocase ABCB1; test: TP_TRANSPORTER: increase in Calcein-AM intracellular accumulation (Calcein-AM: ? uM, Nitrazepam: 100 uM) in MDR1-expressing MDCKII cells; type: functional, cell-based; conditions: dog, mdck-ii
[22] = target: T1, ATP-dependent translocase ABCB1; test: TP_TRANSPORTER: increase in Calcein-AM intracellular accumulation (Calcein-AM: ? uM, Nordazepam: 100 uM) in MDR1-expressing MDCKII cells; type: functional, cell-based; conditions: dog, mdck-ii
[23] = target: T1, ATP-dependent translocase ABCB1; test: TP_TRANSPORTER: increase in Calcein-AM intracellular accumulation (Calcein-AM: ? uM, Selegiline: 100 uM) in MDR1-expressing MDCKII cells; type: functional, cell-based; conditions: dog, mdck-ii
[24] = target: T1, ATP-dependent translocase ABCB1; test: TP_TRANSPORTER: increase in Calcein-AM intracellular accumulation (Calcein-AM: ? uM, Zimeldine: 100 uM) in MDR1-expressing MDCKII cells; type: functional, cell-based; conditions: dog, mdck-ii

T2 sequence (P08183 whole entry): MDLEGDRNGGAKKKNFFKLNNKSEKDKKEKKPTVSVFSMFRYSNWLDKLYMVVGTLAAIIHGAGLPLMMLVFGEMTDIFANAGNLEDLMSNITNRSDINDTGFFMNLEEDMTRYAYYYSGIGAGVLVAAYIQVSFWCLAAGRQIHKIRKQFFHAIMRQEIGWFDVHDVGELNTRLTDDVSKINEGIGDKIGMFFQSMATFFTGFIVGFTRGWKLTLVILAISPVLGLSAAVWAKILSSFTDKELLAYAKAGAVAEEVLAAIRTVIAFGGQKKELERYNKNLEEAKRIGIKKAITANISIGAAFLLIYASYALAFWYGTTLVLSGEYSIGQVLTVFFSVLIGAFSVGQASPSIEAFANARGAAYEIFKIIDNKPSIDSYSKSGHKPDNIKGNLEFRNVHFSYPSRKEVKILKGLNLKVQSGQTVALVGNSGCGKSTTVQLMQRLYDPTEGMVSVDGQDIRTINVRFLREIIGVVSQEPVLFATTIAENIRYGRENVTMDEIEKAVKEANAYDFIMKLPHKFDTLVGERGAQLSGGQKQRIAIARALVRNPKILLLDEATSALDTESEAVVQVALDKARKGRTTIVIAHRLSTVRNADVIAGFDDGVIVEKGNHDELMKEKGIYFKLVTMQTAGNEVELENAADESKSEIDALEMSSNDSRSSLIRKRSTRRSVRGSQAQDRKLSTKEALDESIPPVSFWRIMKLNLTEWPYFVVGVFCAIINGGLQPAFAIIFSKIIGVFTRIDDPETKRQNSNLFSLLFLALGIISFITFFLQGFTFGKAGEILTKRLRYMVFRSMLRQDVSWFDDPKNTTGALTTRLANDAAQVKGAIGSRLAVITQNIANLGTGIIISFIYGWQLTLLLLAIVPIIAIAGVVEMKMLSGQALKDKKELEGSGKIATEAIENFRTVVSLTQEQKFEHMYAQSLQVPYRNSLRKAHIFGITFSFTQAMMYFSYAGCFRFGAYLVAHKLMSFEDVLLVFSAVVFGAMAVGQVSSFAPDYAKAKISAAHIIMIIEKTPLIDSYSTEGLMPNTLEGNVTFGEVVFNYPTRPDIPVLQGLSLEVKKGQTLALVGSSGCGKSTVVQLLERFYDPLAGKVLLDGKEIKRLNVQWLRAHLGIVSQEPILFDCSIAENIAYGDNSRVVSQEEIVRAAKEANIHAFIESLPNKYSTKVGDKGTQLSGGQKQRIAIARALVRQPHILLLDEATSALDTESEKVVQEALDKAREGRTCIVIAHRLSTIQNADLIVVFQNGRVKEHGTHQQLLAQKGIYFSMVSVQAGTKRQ
T1 sequence (P08183 whole entry): as above

Row | Compound | Activity [1] | also measured
1 | CNS(=O)(=O)Cc1ccc2[nH]cc(CCN(C)C)c2c1 | is not a substrate [-] | Activity [2]: is not an inhibitor [-]
2 | CN(C)CCC=C1c2ccccc2CCc2ccccc21 [AMITRIPTYLINE] | is not a substrate [-] | inhibition at 100 µM [3]: 25.5%
3 | OC(CCN1CCCCC1)(c1ccccc1)C1CC2C=CC1C2 (stereo not given) [BIPERIDEN] | is not a substrate [-] | Activity [4]: is not an inhibitor [-]
4 | CC(C)C[C@H]1C(=O)N2CCC[C@H]2[C@]2(O)O[C@](NC(=O)[C@@H]3C=C4c5cccc6[nH]c(Br)c(c56)C[C@H]4N(C)C3)(C(C)C)C(=O)N12 [BROMOCRIPTINE] | is not a substrate [-] | –
5 | O=C1CC2(CCCC2)CC(=O)N1CCCCN1CCN(c2ncccn2)CC1 [BUSPIRONE] | is not a substrate [-] | inhibition at 100 µM [5]: 24.1%
6 | NC(=O)N1c2ccccc2C=Cc2ccccc21 [CARBAMAZEPINE] | is not a substrate [-] | Activity [6]: is not an inhibitor [-]
7 | CN(C)CC/C=C1/c2ccccc2Sc2ccc(Cl)cc21 [CHLORPROTHIXENE] | is not a substrate [-] | inhibition at 100 µM [7]: 57.5%
8 | CN(C)CCCN1c2ccccc2CCc2ccc(Cl)cc21 [CLOMIPRAMINE] | is not a substrate [-] | inhibition at 100 µM [8]: 48.2%
9 | CNCCCN1c2ccccc2CCc2ccccc21 [DESIPRAMINE] | is not a substrate [-] | inhibition at 100 µM [9]: 12.8%
10 | CN(C)CCC=C1c2ccccc2COc2ccccc21 [DOXEPIN] | is not a substrate [-] | inhibition at 100 µM [10]: 15.3%
11 | CCOC(=O)c1ncn2c1CN(C)C(=O)c1cc(F)ccc1-2 [FLUMAZENIL] | is not a substrate [-] | Activity [11]: is not an inhibitor [-]
12 | CCN(CC)CCN1C(=O)CN=C(c2ccccc2F)c2cc(Cl)ccc21 [FLURAZEPAM] | is not a substrate [-] | inhibition at 100 µM [12]: 22.6%
13 | COCCCC/C(=N\OCCN)c1ccc(C(F)(F)F)cc1 [FLUVOXAMINE] | is not a substrate [-] | inhibition at 100 µM [13]: 20.8%
14 | O=C(CCCN1CCC(O)(c2ccc(Cl)cc2)CC1)c1ccc(F)cc1 [HALOPERIDOL] | is not a substrate [-] | inhibition at 100 µM [14]: 37.2%
15 | CN(C)CCCN1c2ccccc2CCc2ccccc21 [IMIPRAMINE] | is not a substrate [-] | Activity [15]: is not an inhibitor [-]
16 | CNC1(c2ccccc2Cl)CCCCC1=O (stereo not given) [KETAMINE] | is not a substrate [-] | Activity [16]: is not an inhibitor [-]
17 | CNCCCC12CCC(c3ccccc31)c1ccccc12 [MAPROTILINE] | is not a substrate [-] | inhibition at 100 µM [17]: 36.7%
18 | CCCC(C)(COC(N)=O)COC(N)=O [MEPROBAMATE] | is not a substrate [-] | Activity [18]: is not an inhibitor [-]
19 | CN1C[C@H](CNC(=O)OCc2ccccc2)C[C@@H]2c3cccc4c3c(cn4C)C[C@H]21 [METERGOLINE] | is not a substrate [-] | inhibition at 100 µM [19]: 84.4%
20 | Cc1ncc2n1-c1ccc(Cl)cc1C(c1ccccc1F)=NC2 [MIDAZOLAM] | is not a substrate [-] | –
21 | C=CCN1CC[C@]23c4c5ccc(O)c4O[C@H]2C(=O)CC[C@@]3(O)[C@H]1C5 [NALOXONE] | is not a substrate [-] | –
22 | O=C1CC[C@@]2(O)[C@H]3Cc4ccc(O)c5c4[C@@]2(CCN3CC2CC2)[C@H]1O5 [NALTREXONE] | is not a substrate [-] | Activity [20]: is not an inhibitor [-]
23 | O=C1CN=C(c2ccccc2)c2cc([N+](=O)[O-])ccc2N1 [NITRAZEPAM] | is not a substrate [-] | Activity [21]: is not an inhibitor [-]
24 | O=C1CN=C(c2ccccc2)c2cc(Cl)ccc2N1 [NORDAZEPAM] | is not a substrate [-] | Activity [22]: is not an inhibitor [-]
25 | C#CCN(C)[C@H](C)Cc1ccccc1 [SELEGILINE] | is not a substrate [-] | Activity [23]: is not an inhibitor [-]
26 | Nc1c2c(nc3ccccc13)CCCC2 [TACRINE] | is not a substrate [-] | –
27 | CN(C)C/C=C(/c1ccc(Br)cc1)c1cccnc1 [ZIMELDINE] | is not a substrate [-] | Activity [24]: is not an inhibitor [-]
